# Target: T1, cGMP-dependent protein kinase 1 (Homo sapiens) (UniProt Q13976)
# T1 sequence (whole entry): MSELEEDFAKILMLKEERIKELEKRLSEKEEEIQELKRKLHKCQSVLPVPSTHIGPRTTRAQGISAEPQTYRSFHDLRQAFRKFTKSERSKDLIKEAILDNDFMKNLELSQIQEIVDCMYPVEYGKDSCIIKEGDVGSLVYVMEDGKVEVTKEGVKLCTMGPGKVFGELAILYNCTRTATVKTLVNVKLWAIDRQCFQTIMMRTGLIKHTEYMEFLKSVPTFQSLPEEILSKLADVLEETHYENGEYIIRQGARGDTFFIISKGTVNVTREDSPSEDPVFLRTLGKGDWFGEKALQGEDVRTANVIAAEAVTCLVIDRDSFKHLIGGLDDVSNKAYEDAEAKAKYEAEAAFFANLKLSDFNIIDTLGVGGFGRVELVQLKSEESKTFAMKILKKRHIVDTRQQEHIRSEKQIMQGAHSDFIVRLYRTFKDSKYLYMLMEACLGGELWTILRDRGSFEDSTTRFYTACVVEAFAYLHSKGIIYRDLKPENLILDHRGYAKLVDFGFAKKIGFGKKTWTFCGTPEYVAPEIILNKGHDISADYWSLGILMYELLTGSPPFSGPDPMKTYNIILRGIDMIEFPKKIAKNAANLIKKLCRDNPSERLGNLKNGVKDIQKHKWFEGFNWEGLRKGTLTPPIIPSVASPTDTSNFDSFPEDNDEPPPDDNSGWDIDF
# Experiment: Inhibition of human PKG1alpha assessed as residual activity at 1 uM relative to control
row,SMILES,Activity
1,COc1ccc(-c2nc3cc(-c4csc(C(=O)NCC(C)(C)C)c4)cnc3[nH]2)cc1,68%
2,COc1ccc(-c2nc3cc(-c4csc(C(=O)NCC(C)C)c4)cnc3[nH]2)cc1,69%
3,COc1ccc(-c2nc3cc(-c4csc(C(=O)NCCC(C)C)c4)cnc3[nH]2)cc1,67%

# Target: Myosin light chain kinase, smooth muscle (Homo sapiens) (UniProt Q15746)
# Experiment: Inhibition of human MLCK assessed as residual activity at 1 uM relative to control
row,SMILES,Activity
1,COc1ccc(-c2nc3cc(-c4csc(C(=O)NCC(C)(C)C)c4)cnc3[nH]2)cc1,95%
2,COc1ccc(-c2nc3cc(-c4csc(C(=O)NCC(C)C)c4)cnc3[nH]2)cc1,100%
3,COc1ccc(-c2nc3cc(-c4csc(C(=O)NCCC(C)C)c4)cnc3[nH]2)cc1,106%

# Target: 5'-AMP-activated protein kinase catalytic subunit alpha-2 (Homo sapiens) (UniProt P54646)
# Experiment: Inhibition of human AMPKalpha2 assessed as residual activity at 1 uM relative to control
# 5'-AMP-activated protein kinase catalytic subunit alpha-2 (Homo sapiens), sequence (P54646 whole entry, looked up): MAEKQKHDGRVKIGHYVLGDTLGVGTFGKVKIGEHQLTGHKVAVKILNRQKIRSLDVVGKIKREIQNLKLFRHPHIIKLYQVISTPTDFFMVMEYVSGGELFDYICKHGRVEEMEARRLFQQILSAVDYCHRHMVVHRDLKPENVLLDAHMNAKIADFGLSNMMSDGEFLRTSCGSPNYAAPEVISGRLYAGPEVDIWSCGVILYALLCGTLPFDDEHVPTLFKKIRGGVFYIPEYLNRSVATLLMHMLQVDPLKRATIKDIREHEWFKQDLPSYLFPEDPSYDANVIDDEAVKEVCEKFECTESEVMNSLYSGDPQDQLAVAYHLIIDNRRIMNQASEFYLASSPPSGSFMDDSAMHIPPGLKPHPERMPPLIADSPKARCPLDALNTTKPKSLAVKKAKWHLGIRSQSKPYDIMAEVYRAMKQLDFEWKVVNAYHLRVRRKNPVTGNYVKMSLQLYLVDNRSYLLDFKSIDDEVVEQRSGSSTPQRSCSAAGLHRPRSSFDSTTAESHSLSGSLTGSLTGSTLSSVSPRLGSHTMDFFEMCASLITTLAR
row,SMILES,Activity
1,COc1ccc(-c2nc3cc(-c4csc(C(=O)NCC(C)(C)C)c4)cnc3[nH]2)cc1,46%
2,COc1ccc(-c2nc3cc(-c4csc(C(=O)NCC(C)C)c4)cnc3[nH]2)cc1,28%
3,COc1ccc(-c2nc3cc(-c4csc(C(=O)NCCC(C)C)c4)cnc3[nH]2)cc1,42%

# Target: MAP kinase-interacting serine/threonine-protein kinase 2 (Homo sapiens) (UniProt Q9HBH9)
# Experiment: Inhibition of human MNK2 assessed as residual activity at 1 uM relative to control
row,SMILES,Activity
1,COc1ccc(-c2nc3cc(-c4csc(C(=O)NCC(C)(C)C)c4)cnc3[nH]2)cc1,5%
2,COc1ccc(-c2nc3cc(-c4csc(C(=O)NCC(C)C)c4)cnc3[nH]2)cc1,4%
3,COc1ccc(-c2nc3cc(-c4csc(C(=O)NCCC(C)C)c4)cnc3[nH]2)cc1,1%

# Target: Protein kinase C theta type (Homo sapiens) (UniProt Q04759)
# Experiment: Inhibition of human PKC-theta assessed as residual activity at 1 uM relative to control
# Protein kinase C theta type (Homo sapiens), sequence (Q04759 whole entry, looked up): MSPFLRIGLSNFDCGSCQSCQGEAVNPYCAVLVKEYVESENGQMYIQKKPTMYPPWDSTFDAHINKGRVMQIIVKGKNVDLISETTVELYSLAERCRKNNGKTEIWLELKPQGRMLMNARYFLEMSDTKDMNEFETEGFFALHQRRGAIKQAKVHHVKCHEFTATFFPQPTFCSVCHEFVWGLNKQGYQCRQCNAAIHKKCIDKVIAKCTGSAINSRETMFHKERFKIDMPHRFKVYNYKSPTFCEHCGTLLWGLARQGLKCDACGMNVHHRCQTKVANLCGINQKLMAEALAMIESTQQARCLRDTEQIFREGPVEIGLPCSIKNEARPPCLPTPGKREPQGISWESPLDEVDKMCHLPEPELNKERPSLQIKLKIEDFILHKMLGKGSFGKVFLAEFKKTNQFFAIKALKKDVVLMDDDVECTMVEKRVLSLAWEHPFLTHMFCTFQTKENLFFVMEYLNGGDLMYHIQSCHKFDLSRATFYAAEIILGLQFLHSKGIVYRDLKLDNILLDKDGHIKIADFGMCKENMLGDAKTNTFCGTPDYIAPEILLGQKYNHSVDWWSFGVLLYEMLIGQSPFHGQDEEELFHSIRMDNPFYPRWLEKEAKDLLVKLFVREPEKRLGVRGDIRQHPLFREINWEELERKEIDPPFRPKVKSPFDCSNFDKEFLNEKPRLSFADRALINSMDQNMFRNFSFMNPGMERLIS
row,SMILES,Activity
1,COc1ccc(-c2nc3cc(-c4csc(C(=O)NCC(C)(C)C)c4)cnc3[nH]2)cc1,90%
2,COc1ccc(-c2nc3cc(-c4csc(C(=O)NCC(C)C)c4)cnc3[nH]2)cc1,89%
3,COc1ccc(-c2nc3cc(-c4csc(C(=O)NCCC(C)C)c4)cnc3[nH]2)cc1,98%

# Target: Serine/threonine-protein kinase 10 (Homo sapiens) (UniProt O94804)
# Experiment: Inhibition of human LOK assessed as residual activity at 1 uM relative to control
# Serine/threonine-protein kinase 10 (Homo sapiens), sequence (O94804 whole entry, looked up): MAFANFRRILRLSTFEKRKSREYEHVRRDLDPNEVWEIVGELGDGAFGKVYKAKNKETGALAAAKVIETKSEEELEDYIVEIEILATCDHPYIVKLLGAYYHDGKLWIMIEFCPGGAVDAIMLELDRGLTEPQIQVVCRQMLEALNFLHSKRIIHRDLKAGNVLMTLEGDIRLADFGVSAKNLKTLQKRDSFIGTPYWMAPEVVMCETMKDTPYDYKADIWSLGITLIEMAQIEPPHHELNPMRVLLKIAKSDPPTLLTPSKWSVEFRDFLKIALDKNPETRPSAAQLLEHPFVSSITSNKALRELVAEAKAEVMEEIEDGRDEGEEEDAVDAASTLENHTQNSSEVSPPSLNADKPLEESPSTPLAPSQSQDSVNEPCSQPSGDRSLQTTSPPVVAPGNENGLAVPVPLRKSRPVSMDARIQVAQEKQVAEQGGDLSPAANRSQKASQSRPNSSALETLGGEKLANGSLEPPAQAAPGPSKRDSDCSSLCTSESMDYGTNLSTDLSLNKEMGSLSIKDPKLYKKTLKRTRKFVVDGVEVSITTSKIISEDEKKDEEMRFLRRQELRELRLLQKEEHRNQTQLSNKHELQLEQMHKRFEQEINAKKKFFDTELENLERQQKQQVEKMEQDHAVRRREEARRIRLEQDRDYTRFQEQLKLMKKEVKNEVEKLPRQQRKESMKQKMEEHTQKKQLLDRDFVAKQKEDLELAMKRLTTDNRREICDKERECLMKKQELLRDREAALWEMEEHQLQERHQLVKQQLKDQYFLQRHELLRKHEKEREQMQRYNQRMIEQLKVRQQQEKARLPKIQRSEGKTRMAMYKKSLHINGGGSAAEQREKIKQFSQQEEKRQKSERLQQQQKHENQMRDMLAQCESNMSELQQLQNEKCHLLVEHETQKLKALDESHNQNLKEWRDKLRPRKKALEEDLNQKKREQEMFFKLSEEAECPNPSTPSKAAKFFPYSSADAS
row,SMILES,Activity
1,COc1ccc(-c2nc3cc(-c4csc(C(=O)NCC(C)(C)C)c4)cnc3[nH]2)cc1,102%
2,COc1ccc(-c2nc3cc(-c4csc(C(=O)NCC(C)C)c4)cnc3[nH]2)cc1,100%
3,COc1ccc(-c2nc3cc(-c4csc(C(=O)NCCC(C)C)c4)cnc3[nH]2)cc1,97%

# Target: Fibroblast growth factor receptor 3 (Homo sapiens) (UniProt P22607)
# Experiment: Inhibition of human FGFR3 assessed as residual activity at 1 uM relative to control
row,SMILES,Activity
1,COc1ccc(-c2nc3cc(-c4csc(C(=O)NCC(C)(C)C)c4)cnc3[nH]2)cc1,80%
2,COc1ccc(-c2nc3cc(-c4csc(C(=O)NCC(C)C)c4)cnc3[nH]2)cc1,62%
3,COc1ccc(-c2nc3cc(-c4csc(C(=O)NCCC(C)C)c4)cnc3[nH]2)cc1,79%

# Target: T2, Inhibitor of nuclear factor kappa-B kinase subunit beta (Homo sapiens) (UniProt O14920)
# T2 sequence (whole entry): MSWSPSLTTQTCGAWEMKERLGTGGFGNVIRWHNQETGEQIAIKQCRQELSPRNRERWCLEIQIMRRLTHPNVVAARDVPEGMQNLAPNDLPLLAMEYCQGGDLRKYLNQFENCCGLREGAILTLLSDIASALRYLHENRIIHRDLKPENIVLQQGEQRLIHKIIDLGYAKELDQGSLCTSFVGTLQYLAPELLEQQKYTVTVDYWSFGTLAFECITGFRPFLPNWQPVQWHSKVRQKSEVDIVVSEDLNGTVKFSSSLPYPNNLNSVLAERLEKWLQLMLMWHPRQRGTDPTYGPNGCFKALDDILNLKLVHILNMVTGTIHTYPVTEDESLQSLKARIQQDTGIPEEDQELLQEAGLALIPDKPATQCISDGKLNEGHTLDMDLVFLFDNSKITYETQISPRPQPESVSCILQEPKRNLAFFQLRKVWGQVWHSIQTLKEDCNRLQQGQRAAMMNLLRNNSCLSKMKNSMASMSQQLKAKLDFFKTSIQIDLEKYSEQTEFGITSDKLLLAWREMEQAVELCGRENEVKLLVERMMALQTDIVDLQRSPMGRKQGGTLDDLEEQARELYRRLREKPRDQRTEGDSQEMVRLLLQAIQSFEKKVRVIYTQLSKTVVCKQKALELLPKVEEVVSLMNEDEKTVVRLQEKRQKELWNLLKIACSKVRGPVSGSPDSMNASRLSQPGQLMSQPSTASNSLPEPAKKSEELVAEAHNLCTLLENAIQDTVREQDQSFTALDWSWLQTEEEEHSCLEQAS
# Experiment: Inhibition of human IKKbeta assessed as residual activity at 1 uM relative to control
row,SMILES,Activity
1,COc1ccc(-c2nc3cc(-c4csc(C(=O)NCC(C)(C)C)c4)cnc3[nH]2)cc1,99%
2,COc1ccc(-c2nc3cc(-c4csc(C(=O)NCC(C)C)c4)cnc3[nH]2)cc1,95%
3,COc1ccc(-c2nc3cc(-c4csc(C(=O)NCCC(C)C)c4)cnc3[nH]2)cc1,95%

# Target: RAC-alpha serine/threonine-protein kinase (Homo sapiens) (UniProt P31749)
# Experiment: Inhibition of human PKBalpha assessed as residual activity at 1 uM relative to control
# RAC-alpha serine/threonine-protein kinase (Homo sapiens), sequence (P31749 whole entry): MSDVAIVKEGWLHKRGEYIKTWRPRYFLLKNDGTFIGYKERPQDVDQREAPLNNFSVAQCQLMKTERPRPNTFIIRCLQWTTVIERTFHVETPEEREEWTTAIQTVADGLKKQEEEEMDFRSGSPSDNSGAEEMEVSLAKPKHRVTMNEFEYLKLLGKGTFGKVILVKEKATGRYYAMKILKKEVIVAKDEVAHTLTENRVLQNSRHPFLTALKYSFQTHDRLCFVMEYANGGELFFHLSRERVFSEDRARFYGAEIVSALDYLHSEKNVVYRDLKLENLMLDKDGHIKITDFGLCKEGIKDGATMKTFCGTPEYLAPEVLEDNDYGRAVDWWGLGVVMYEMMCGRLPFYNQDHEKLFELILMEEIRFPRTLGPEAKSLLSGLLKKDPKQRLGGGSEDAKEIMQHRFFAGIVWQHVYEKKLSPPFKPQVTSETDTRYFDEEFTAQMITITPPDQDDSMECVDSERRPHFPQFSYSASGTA
row,SMILES,Activity
1,COc1ccc(-c2nc3cc(-c4csc(C(=O)NCC(C)(C)C)c4)cnc3[nH]2)cc1,107%
2,COc1ccc(-c2nc3cc(-c4csc(C(=O)NCC(C)C)c4)cnc3[nH]2)cc1,119%
3,COc1ccc(-c2nc3cc(-c4csc(C(=O)NCCC(C)C)c4)cnc3[nH]2)cc1,111%

# Target: Proto-oncogene tyrosine-protein kinase receptor Ret (Homo sapiens) (UniProt P07949)
# Experiment: Inhibition of human RET assessed as residual activity at 1 uM relative to control
row,SMILES,Activity
1,COc1ccc(-c2nc3cc(-c4csc(C(=O)NCC(C)(C)C)c4)cnc3[nH]2)cc1,10%
2,COc1ccc(-c2nc3cc(-c4csc(C(=O)NCC(C)C)c4)cnc3[nH]2)cc1,6%
3,COc1ccc(-c2nc3cc(-c4csc(C(=O)NCCC(C)C)c4)cnc3[nH]2)cc1,7%

# Target: T3, Phosphatidylinositol 5-phosphate 4-kinase type-2 alpha (Homo sapiens) (UniProt P48426)
# T3 sequence (whole entry): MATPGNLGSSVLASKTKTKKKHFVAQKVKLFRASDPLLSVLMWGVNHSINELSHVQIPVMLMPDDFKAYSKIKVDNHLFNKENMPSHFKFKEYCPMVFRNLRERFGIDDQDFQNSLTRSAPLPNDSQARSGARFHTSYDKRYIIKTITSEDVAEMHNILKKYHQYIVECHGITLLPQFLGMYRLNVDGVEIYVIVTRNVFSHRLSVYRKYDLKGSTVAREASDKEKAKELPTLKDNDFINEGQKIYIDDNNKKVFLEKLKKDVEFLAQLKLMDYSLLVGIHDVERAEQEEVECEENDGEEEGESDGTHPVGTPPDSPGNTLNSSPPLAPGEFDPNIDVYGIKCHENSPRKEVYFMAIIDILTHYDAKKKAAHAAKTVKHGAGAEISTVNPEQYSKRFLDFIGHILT
# Experiment: Inhibition of human PIP4K2alpha assessed as residual activity at 1 uM relative to control
row,SMILES,Activity
1,COc1ccc(-c2nc3cc(-c4csc(C(=O)NCC(C)(C)C)c4)cnc3[nH]2)cc1,87%
2,COc1ccc(-c2nc3cc(-c4csc(C(=O)NCC(C)C)c4)cnc3[nH]2)cc1,85%
3,COc1ccc(-c2nc3cc(-c4csc(C(=O)NCCC(C)C)c4)cnc3[nH]2)cc1,95%

# Target: Ribosomal protein S6 kinase alpha-5 (Homo sapiens) (UniProt O75582)
# Experiment: Inhibition of human MSK1 assessed as residual activity at 1 uM relative to control
row,SMILES,Activity
1,COc1ccc(-c2nc3cc(-c4csc(C(=O)NCC(C)(C)C)c4)cnc3[nH]2)cc1,104%
2,COc1ccc(-c2nc3cc(-c4csc(C(=O)NCC(C)C)c4)cnc3[nH]2)cc1,100%
3,COc1ccc(-c2nc3cc(-c4csc(C(=O)NCCC(C)C)c4)cnc3[nH]2)cc1,104%

# Target: Tyrosine-protein kinase Lyn (Homo sapiens) (UniProt P07948)
# Experiment: Inhibition of human LYN assessed as residual activity at 1 uM relative to control
# Tyrosine-protein kinase Lyn (Homo sapiens), sequence (P07948 2-512 limits assumed): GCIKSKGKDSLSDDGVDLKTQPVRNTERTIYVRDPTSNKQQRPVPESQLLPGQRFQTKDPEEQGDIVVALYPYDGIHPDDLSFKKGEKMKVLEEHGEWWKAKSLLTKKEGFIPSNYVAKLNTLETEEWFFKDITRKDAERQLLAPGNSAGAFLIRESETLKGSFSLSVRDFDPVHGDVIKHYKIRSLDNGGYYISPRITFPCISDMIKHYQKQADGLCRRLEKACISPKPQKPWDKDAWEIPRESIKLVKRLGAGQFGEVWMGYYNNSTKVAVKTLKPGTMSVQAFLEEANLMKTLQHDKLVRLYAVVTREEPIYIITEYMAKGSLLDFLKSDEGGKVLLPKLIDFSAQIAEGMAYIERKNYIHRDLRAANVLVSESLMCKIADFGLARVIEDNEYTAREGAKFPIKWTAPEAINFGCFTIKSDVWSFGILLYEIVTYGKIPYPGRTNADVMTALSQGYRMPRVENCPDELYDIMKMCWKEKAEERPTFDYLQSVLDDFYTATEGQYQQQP
row,SMILES,Activity
1,COc1ccc(-c2nc3cc(-c4csc(C(=O)NCC(C)(C)C)c4)cnc3[nH]2)cc1,61%
2,COc1ccc(-c2nc3cc(-c4csc(C(=O)NCC(C)C)c4)cnc3[nH]2)cc1,46%
3,COc1ccc(-c2nc3cc(-c4csc(C(=O)NCCC(C)C)c4)cnc3[nH]2)cc1,39%

# Target: ALK tyrosine kinase receptor (Homo sapiens) (UniProt Q9UM73)
# Experiment: Inhibition of human ALK assessed as residual activity at 1 uM relative to control
# ALK tyrosine kinase receptor (Homo sapiens), sequence (Q9UM73 19-1620 limits assumed): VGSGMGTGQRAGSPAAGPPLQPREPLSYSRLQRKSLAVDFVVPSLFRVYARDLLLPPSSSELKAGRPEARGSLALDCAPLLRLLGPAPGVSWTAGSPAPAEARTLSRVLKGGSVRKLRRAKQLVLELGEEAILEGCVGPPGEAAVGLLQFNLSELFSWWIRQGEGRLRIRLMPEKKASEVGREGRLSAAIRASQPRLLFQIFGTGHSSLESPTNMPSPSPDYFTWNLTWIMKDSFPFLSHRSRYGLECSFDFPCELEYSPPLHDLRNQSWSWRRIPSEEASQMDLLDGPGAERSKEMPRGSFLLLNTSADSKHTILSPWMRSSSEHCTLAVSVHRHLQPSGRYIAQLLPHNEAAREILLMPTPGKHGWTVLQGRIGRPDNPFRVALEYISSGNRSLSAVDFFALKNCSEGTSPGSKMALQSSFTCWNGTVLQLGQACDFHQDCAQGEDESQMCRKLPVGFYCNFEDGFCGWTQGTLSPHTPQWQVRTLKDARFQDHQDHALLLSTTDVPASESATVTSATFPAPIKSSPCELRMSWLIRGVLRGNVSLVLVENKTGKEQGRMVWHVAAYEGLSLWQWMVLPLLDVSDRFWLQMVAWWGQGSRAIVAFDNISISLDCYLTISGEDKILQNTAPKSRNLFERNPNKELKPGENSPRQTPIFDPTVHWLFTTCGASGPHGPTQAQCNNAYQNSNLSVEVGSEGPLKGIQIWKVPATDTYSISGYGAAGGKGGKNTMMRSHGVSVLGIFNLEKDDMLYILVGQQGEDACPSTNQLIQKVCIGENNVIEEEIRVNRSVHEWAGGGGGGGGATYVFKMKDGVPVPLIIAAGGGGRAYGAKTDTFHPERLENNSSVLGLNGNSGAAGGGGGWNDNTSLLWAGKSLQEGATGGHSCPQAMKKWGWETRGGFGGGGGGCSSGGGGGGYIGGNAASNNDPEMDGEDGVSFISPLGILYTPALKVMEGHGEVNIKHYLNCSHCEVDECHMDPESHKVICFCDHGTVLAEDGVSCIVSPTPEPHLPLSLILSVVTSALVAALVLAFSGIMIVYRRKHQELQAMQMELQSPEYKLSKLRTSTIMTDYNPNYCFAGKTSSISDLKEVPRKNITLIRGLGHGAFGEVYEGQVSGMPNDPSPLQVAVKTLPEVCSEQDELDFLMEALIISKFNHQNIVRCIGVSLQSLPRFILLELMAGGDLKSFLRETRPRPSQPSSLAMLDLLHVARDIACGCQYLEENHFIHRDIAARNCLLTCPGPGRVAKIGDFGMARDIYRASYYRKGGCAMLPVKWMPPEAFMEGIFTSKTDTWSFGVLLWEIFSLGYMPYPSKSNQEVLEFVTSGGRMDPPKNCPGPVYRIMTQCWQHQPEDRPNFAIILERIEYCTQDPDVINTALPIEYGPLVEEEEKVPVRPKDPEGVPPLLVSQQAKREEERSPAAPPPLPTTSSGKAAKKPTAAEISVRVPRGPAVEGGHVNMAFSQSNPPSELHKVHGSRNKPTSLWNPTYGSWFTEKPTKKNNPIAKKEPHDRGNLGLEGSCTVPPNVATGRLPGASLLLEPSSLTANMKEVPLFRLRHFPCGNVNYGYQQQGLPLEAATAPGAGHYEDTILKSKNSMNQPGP
row,SMILES,Activity
1,COc1ccc(-c2nc3cc(-c4csc(C(=O)NCC(C)(C)C)c4)cnc3[nH]2)cc1,101%
2,COc1ccc(-c2nc3cc(-c4csc(C(=O)NCC(C)C)c4)cnc3[nH]2)cc1,99%
3,COc1ccc(-c2nc3cc(-c4csc(C(=O)NCCC(C)C)c4)cnc3[nH]2)cc1,88%

# Target: Macrophage colony-stimulating factor 1 receptor (Homo sapiens) (UniProt P07333)
# Experiment: Inhibition of human FMS assessed as residual activity at 1 uM relative to control
row,SMILES,Activity
1,COc1ccc(-c2nc3cc(-c4csc(C(=O)NCC(C)(C)C)c4)cnc3[nH]2)cc1,70%
2,COc1ccc(-c2nc3cc(-c4csc(C(=O)NCC(C)C)c4)cnc3[nH]2)cc1,63%
3,COc1ccc(-c2nc3cc(-c4csc(C(=O)NCCC(C)C)c4)cnc3[nH]2)cc1,70%

# Target: Receptor-type tyrosine-protein kinase FLT3 (Homo sapiens) (UniProt P36888)
# Experiment: Inhibition of human FLT3 assessed as residual activity at 1 uM relative to control
row,SMILES,Activity
1,COc1ccc(-c2nc3cc(-c4csc(C(=O)NCC(C)(C)C)c4)cnc3[nH]2)cc1,30%
2,COc1ccc(-c2nc3cc(-c4csc(C(=O)NCC(C)C)c4)cnc3[nH]2)cc1,6%
3,COc1ccc(-c2nc3cc(-c4csc(C(=O)NCCC(C)C)c4)cnc3[nH]2)cc1,18%

# Target: Insulin-like growth factor 1 receptor (Homo sapiens) (UniProt P08069)
# Experiment: Inhibition of human IGF-1R assessed as residual activity at 1 uM relative to control
row,SMILES,Activity
1,COc1ccc(-c2nc3cc(-c4csc(C(=O)NCC(C)(C)C)c4)cnc3[nH]2)cc1,98%
2,COc1ccc(-c2nc3cc(-c4csc(C(=O)NCC(C)C)c4)cnc3[nH]2)cc1,108%
3,COc1ccc(-c2nc3cc(-c4csc(C(=O)NCCC(C)C)c4)cnc3[nH]2)cc1,105%

# Source: ChEMBL document CHEMBL3124838, “Discovery of 6-aryl-azabenzimidazoles that inhibit the TBK1/IKK-ε kinases” (Bioorg Med Chem Lett, 2014)
